Data from publication PMC3340406, “Molecular and Functional Characterization of Novel Fructosyltransferases and Invertases from Agave tequilana” (PLoS ONE, 2012).

What was measured:
Type in all cases: biochemical
[1] = target: T1, AtqCwinv-1 (Agave tequilana, UniProt I1ZBQ2); assay: HPAEC-PAD, exohydrolase activity; details: 100 mM 1-kestose, 50 mM sodium acetate pH 4.3, 30 °C; 10 µg affinity purified protein
T1 construct: gene Cwinv1; mature region, signal peptide (24 aa) removed, His-tagged, secreted from Pichia pastoris X-33 (pPICZalphaA); full length 575 aa; about 75 kDa on gel
T1 sequence (I1ZBQ2 25-575): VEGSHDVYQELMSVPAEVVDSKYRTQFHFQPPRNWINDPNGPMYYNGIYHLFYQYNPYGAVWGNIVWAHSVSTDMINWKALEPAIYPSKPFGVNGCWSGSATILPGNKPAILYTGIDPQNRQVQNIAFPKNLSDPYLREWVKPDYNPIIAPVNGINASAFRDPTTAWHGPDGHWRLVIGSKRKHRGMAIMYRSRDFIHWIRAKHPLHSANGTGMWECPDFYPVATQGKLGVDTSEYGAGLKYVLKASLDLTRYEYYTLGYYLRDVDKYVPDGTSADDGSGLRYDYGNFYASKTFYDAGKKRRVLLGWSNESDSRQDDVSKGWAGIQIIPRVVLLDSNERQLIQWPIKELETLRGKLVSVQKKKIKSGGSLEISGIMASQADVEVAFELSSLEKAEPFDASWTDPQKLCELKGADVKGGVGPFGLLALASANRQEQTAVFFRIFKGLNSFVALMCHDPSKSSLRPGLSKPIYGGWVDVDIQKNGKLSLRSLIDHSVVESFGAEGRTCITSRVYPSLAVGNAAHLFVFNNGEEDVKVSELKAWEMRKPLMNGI

[2] = target: T2, Atq6G-FFT-1 (Agave tequilana, UniProt I1ZBQ0); assay: HPAEC-PAD product analysis; details: 50 mM 1-kestose (stock contains some sucrose and nystose), 50 mM sodium acetate pH 5.5, 30 °C; 20 µg total protein extract
T2 construct: gene FFT1; mature region, signal peptide (34 aa) removed, His-tagged, secreted from Pichia pastoris X-33 (pPICZalphaA); full length 627 aa; about 80 kDa on gel
T2 sequence (I1ZBQ0 35-627): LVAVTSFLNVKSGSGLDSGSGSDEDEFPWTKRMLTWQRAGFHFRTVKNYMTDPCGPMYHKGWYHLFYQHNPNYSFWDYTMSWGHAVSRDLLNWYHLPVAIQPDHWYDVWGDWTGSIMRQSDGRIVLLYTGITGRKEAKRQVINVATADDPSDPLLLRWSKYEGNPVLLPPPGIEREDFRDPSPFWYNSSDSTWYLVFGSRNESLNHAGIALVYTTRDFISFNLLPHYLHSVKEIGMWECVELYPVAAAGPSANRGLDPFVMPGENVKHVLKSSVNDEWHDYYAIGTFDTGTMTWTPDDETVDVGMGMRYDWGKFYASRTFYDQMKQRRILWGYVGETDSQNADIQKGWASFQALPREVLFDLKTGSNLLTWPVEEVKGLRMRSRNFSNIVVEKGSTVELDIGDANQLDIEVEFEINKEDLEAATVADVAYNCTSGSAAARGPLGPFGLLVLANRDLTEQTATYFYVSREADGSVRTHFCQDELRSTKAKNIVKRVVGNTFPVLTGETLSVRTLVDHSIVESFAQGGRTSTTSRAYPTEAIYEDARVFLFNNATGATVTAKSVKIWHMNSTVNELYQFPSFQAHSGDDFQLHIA

[3] = target: T1, AtqCwinv-1; assay: TLC and HPAEC-PAD, sucrose hydrolysis; details: 100 mM sucrose, 50 mM sodium acetate pH 4.3, 30 °C; 10 µg affinity purified protein

| SMILES | HPAEC-PAD, exohydrolase activity [1] | HPAEC-PAD product analysis [2] | TLC and HPAEC-PAD, sucrose hydrolysis [3] |
| --- | --- | --- | --- |
| OC[C@H]1O[C@@](CO)(OC[C@@]2(O[C@H]3O[C@H](CO)[C@@H](O)[C@H](O)[C@H]3O)O[C@H](CO)[C@@H](O)[C@@H]2O)[C@@H](O)[C@@H]1O [1-kestose] | some exohydrolytic activity occurred when sucrose was replaced by 1-kestose as substrate | 1-kestose was used as substrate no neokestose was produced but a tetrasaccharide 4c molecule | – |
| OC[C@H]1O[C@@](CO)(O[C@H]2O[C@H](CO)[C@@H](O)[C@H](O)[C@H]2O)[C@@H](O)[C@@H]1O [sucrose] | – | – | AtqCwinv-1 produced fructose and glucose when incubated with sucrose as the sole substrate |
